Data: publication PMC4423559 (Angewandte Chemie (International ed. in English), 2015)

Target: T1, GTP/GDP carrier (GGC) from yeast mitochondria (Saccharomyces cerevisiae, UniProt P38988)
T1 sequence (P38988 1-300): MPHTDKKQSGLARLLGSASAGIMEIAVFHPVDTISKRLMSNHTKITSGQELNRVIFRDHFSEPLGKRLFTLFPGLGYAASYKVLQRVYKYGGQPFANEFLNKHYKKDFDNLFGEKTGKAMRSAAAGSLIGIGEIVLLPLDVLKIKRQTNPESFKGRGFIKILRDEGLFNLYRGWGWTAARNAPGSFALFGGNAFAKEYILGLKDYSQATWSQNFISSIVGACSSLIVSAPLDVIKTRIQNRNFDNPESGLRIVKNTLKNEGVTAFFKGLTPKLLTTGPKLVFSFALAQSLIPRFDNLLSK
Experiment: NMR chemical shift perturbation titration, 3D TROSY HNCO
Format: binding

Kd | SMILES
6.6 mM | Nc1nc2c(ncn2[C@@H]2O[C@H](COP(=O)(O)OP(=O)(O)OP(=O)(O)O)[C@@H](O)[C@H]2O)c(=O)[nH]1 [GTP]
23 mM | Nc1nc2c(ncn2[C@@H]2O[C@H](COP(=O)(O)OP(=O)(O)O)[C@@H](O)[C@H]2O)c(=O)[nH]1 [GDP]
